# Reference: ChEMBL document CHEMBL4020847, “Discovery of an Orally Bioavailable Inhibitor of Defective in Cullin Neddylation 1 (DCN1)-Mediated Cullin Neddylation” (J Med Chem, 2018)
# How the values were obtained:
# [1] = Half life in mouse liver microsomes at 0.8 uM by LC-MS/MS analysis; assay type: ADME, microsome
# [2] = target: DCN1-like protein 1 (Homo sapiens, UniProt Q96GG9)
# Description: Inhibition of biotin-labeled DCN1 (unknown origin) assessed as reduction in protein interaction with Ac-UBE2M12-AlexaFluor488 after 1 hr by TR-FRET assay
# [3] = test system: Mus musculus; assay: Half life in mouse at 0.5 to 1.5 mg/kg, iv administered as single dose; assay type: ADME, organism-based; details: in vivo
# [4] = test system: Mus musculus; assay: Toxicity in mouse at 0.5 to 1.5 mg/kg, iv administered as single dose up to 48 hrs; assay type: organism-based; details: in vivo
# [5] = test system: Mus musculus; assay: Clearance in mouse at 0.5 to 1.5 mg/kg, iv administered as single dose; assay type: ADME, organism-based; details: in vivo
# [6] = test system: Plasma; assay: Plasma concentration in mouse at 0.5 to 1.5 mg/kg, iv administered as single dose after 2 hrs; assay type: ADME, organism-based; details: in vivo, BLD = below limit of detection
# [7] = test system: Mus musculus; assay: Volume of distribution in mouse at 0.5 to 1.5 mg/kg, iv administered as single dose; assay type: ADME, organism-based; details: in vivo
# [8] = Intrinsic clearance in mouse liver microsomes at 0.8 uM by LC-MS/MS analysis; assay type: ADME, microsome; details: read-out: CLH
# [9] = test system: Liver; assay: Drug level in mouse liver microsomes treated with 1-benzyl-1-(1-(cyclopropylmethyl)piperidin-4-yl)-3-(3-(trifluoromethyl)phenyl)urea at 0.8 uM by LC-MS/MS analysis; assay type: ADME, microsome
# [10] = test system: Mus musculus; assay: AUClast in mouse at 50 to 200 mg/kg, po administered as single dose; assay type: ADME, organism-based; details: in vivo
# [11] = test system: Mus musculus; assay: Cmax in mouse at 50 to 200 mg/kg, po administered as single dose; assay type: ADME, organism-based; details: in vivo
# [12] = Clearance in mouse at 100 mg/kg, po administered as single dose; assay type: ADME, organism-based; details: in vivo
# [13] = test system: Mus musculus; assay: Oral bioavailability in mouse at 50 mg/kg administered as single dose; assay type: ADME, organism-based; details: in vivo
# [14] = Plasma concentration in mouse at 200 mg/kg, po administered as singe dose measured after 1 hr; assay type: ADME, organism-based
# [15] = Clearance in mouse at 1 mg/kg, iv administered as single dose; assay type: ADME, organism-based; details: in vivo
# [16] = test system: Mus musculus; assay: Toxicity in mouse assessed as weight loss at 200 mg/kg, po qd for 5 to 14 days; assay type: organism-based; details: in vivo
# [17] = test system: Mus musculus; assay: Toxicity in mouse at 200 mg/kg, po bid for 14 days; assay type: organism-based; details: in vivo, 336 h
# [18] = test system: Mus musculus; assay: Toxicity in mouse assessed as weight loss at 200 mg/kg, po qd for 3 days; assay type: organism-based; details: in vivo, 72 h
# [19] = test system: Mus musculus; assay: Toxicity in mouse at 200 mg/kg, po qd for 14 days; assay type: organism-based; details: in vivo, 336 h
# [20] = test system: Mus musculus; assay: Toxicity in mouse at 50 to 200 mg/kg, po administered as single dose up to 48 hrs; assay type: organism-based; details: in vivo
# [21] = Half life in mouse at 1 mg/kg, iv administered as single dose; assay type: ADME, organism-based; details: in vivo
# [22] = Plasma concentration in mouse at 200 mg/kg, po qd for 14 days measured after 1 hr; assay type: ADME, organism-based
# [23] = Plasma concentration in mouse at 200 mg/kg, po bid for 14 days measured after 1 hr; assay type: ADME, organism-based
# [24] = Half life in mouse at 100 mg/kg, po administered as single dose; assay type: ADME, organism-based; details: in vivo
# [25] = test system: Liver; assay: Drug metabolism in mouse liver microsomes assessed as 1-benzyl-1-(piperidin-4-yl)-3-(3-(trifluoromethyl)phenyl)urea formation at 0.8 uM by LC-MS/MS analysis; assay type: ADME, microsome
# [26] = test system: Liver; assay: Drug metabolism in mouse liver microsomes assessed as aromatic ring oxidation at 0.8 uM by LC-MS/MS analysis; assay type: ADME, microsome
# Chain of DCN1-like protein 1 (Q96GG9 whole entry): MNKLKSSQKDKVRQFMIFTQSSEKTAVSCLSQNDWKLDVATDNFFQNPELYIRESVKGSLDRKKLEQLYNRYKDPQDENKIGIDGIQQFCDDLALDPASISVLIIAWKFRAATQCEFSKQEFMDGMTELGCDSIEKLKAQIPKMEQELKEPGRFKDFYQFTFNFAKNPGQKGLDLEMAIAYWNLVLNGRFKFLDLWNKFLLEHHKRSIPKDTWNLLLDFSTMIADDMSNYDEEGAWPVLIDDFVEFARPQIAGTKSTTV
half-life at 0.8 µM [1],SMILES,IC50 [2],further results
≤ 6 min,CCCCN1CCC(N(Cc2ccccc2)C(=O)Nc2cccc(C(F)(F)F)c2F)CC1,,
,CCCC(C)N1CCC(N(Cc2ccccc2)C(=O)Nc2ccc(C(C)(C)C)cc2)CC1 (stereo not given),1720 nM,
10.2 min,CCCN1CCC(N(Cc2ccccc2)C(=O)Nc2cccc(C(F)(F)F)c2)CC1,,
,COc1cccc(CN2CCC(N(Cc3ccccc3)C(=O)Nc3cc(F)cc(C(F)(F)F)c3)CC2)c1,> 28000 nM,
19.6 to 19.8 min,CCCC(C)N1CCC(N(Cc2ccccc2)C(=O)Nc2cccc(C(F)(F)F)c2)CC1 (stereo not given),,t1/2 [3]: 8.4 min; Activity [4]: Non-Toxic; CL [5]: 700 mL/min/kg; Cp [6]: Bld; Vd [7]: 87.3 to 176 L/kg; CLint scaled at 0.8 µM [8]: 165 to 170 mL/min/kg
,O=C(Nc1cccc(C(F)(F)F)c1)N(Cc1ccccc1)C1CCNCC1,,Drug metabolism [9]: Metabolite_Detected
,COc1ccccc1CN1CCC(N(Cc2ccccc2)C(=O)Nc2cc(F)cc(C(F)(F)F)c2)CC1,> 25000 nM,
14.7 min,CCCCN1CCC(N(Cc2ccc3c(c2)OCO3)C(=O)Nc2cccc(C(F)(F)F)c2)CC1,,
11.8 min,CCCC(C)N1CCC(N(Cc2ccccc2)C(=O)Nc2cc(F)cc(C(F)(F)F)c2)CC1 (stereo not given),,
,CCCC(C)N1CCC(N(Cc2ccccc2)C(=O)Nc2ccc3ncccc3c2)CC1 (stereo not given),> 20000 nM,
16.3 min,CCCN1CCC(N(Cc2cc(F)cc(C(F)(F)F)c2)C(=O)Nc2cccc(C(F)(F)F)c2)CC1,,
< 6 min,CCCN1CCC(N(Cc2ccc3c(c2)OCO3)C(=O)Nc2cccc(C(F)(F)F)c2)CC1,,
,O=C(Nc1cc(F)cc(C(F)(F)F)c1)N(Cc1ccccc1)C1CCN(Cc2cccc(Oc3ccccc3)c2)CC1,> 24000 nM,
,O=C(Nc1cc(F)cc(C(F)(F)F)c1)N(Cc1ccccc1)C1CCN(Cc2ccncc2)CC1,> 28000 nM,
,O=C(Nc1cc(F)cc(C(F)(F)F)c1)N(Cc1ccccc1)C1CCN(Cc2nc3ccccc3s2)CC1,> 25000 nM,
≤ 6 min,CCCC(C)N1CCC(N(Cc2ccccc2)C(=O)Nc2cc(F)cc(Cl)c2)CC1 (stereo not given),,CLint scaled at 0.8 µM [8]: ≥ 500 mL/min/kg
9 min,CCCCN1CCC(N(Cc2ccccc2)C(=O)Nc2cccc(C(F)(F)F)c2)CC1,,
,Cn1ccnc1CN1CCC(N(Cc2ccccc2)C(=O)Nc2cc(F)cc(C(F)(F)F)c2)CC1,> 28000 nM,
,Cc1ccc(CN2CCC(N(Cc3ccccc3)C(=O)Nc3cc(F)cc(C(F)(F)F)c3)CC2)o1,> 24000 nM,
10.6 min,CCCC(C)N1CCC(N(Cc2ccccc2)C(=O)Nc2ccc(C(C)C)cc2)CC1 (stereo not given),,

half-life at 0.8 µM [1],SMILES,IC50 [2],further results
≤ 6 min,CCCCN1CCC(N(Cc2ccccc2)C(=O)Nc2cc(F)cc(F)c2)CC1,,CLint scaled at 0.8 µM [8]: ≥ 500 mL/min/kg
126 to 127 min,CCCCN1CCC(N(Cc2ccccc2)C(=O)Nc2ccc(Cl)c(Cl)c2)CC1,,AUClast [10]: 3.4 to 17.1 µM·h; Cmax [11]: 1500 to 3000 nM; CL/F [12]: 367 mL/min/kg; F [13]: 88%; concentration at 1 h [14]: 3000 nM; clearance [15]: 283 mL/min/kg; Activity [16]: Non-Toxic; Activity [17]: Non-Toxic; Activity [4]: Non-Toxic; Activity [18]: 3 to 5%; Activity [19]: Non-Toxic; Activity [20]: Non-Toxic; half-life [21]: 216 min; concentration at 1 h [22]: 2400 nM; concentration at 1 h [23]: 3300 nM; half-life [24]: 252 min; Vd [7]: 87.3 to 176 L/kg; CLint scaled at 0.8 µM [8]: 25 to 25.6 mL/min/kg
22.7 min,CCCC(C)N1CCC(N(Cc2ccccc2)C(=O)Nc2ccc(Cl)c([N+](=O)[O-])c2)CC1 (stereo not given),,
8.22 min,CCCN1CCC(N(Cc2ccco2)C(=O)Nc2cccc(C(F)(F)F)c2)CC1,,
≤ 6 min,CCCC(C)N1CCC(N(Cc2ccccc2)C(=O)Nc2ccc3c(c2)CCC3)CC1 (stereo not given),,
9 min,CCCC(C)N1CCC(N(Cc2ccccc2)C(=O)Nc2ccc(C)c(F)c2)CC1 (stereo not given),,
< 6 min,O=C(Nc1cccc(C(F)(F)F)c1)N(Cc1ccccc1)C1CCN(CC2CC2)CC1,,Drug metabolism [25]: Metabolite_Detected; Drug metabolism [26]: Metabolite_Detected
11.3 min,CCCC(C)N1CCC(N(Cc2ccccc2)C(=O)Nc2ccc(F)c(F)c2)CC1 (stereo not given),,
≤ 6 min,CCCCN1CCC(N(Cc2ccccc2)C(=O)Nc2cccc(F)c2)CC1,,CLint scaled at 0.8 µM [8]: ≥ 500 mL/min/kg
84 min,CCCCN1CCC(N(Cc2ccccc2)C(=O)Nc2ccc(F)c(Cl)c2)CC1,,
7.44 min,CC(C)(C)N1CCC(N(Cc2ccc3c(c2)OCO3)C(=O)Nc2cccc(C(F)(F)F)c2)CC1,,
14.3 min,CCCC(C)N1CCC(N(Cc2ccccc2)C(=O)Nc2ccc3ncsc3c2)CC1 (stereo not given),,
146 min,CCCCN1CCC(N(Cc2ccccc2)C(=O)Nc2cc(F)cc(C(F)(F)F)c2)CC1,,
≤ 6 min,CCCC(C)N1CCC(N(Cc2ccccc2)C(=O)Nc2ccc3c(c2)OCO3)CC1 (stereo not given),,CLint scaled at 0.8 µM [8]: ≥ 500 mL/min/kg
,Cn1ccc2cc(CN3CCC(N(Cc4ccccc4)C(=O)Nc4cc(F)cc(C(F)(F)F)c4)CC3)ccc21,> 21000 nM,
≤ 6 min,CCCCN1CCC(N(Cc2ccccc2)C(=O)Nc2cccc(Cl)c2)CC1,,
35.5 min,O=C(Nc1cccc(C(F)(F)F)c1)NC1CCN(Cc2ccccc2)CC1,,
,Cn1cncc1CN1CCC(N(Cc2ccccc2)C(=O)Nc2cc(F)cc(C(F)(F)F)c2)CC1,> 24000 nM,
,O=C(Nc1cc(F)cc(C(F)(F)F)c1)N(Cc1ccccc1)C1CCN(Cc2ccc(Cc3ccccc3)cc2)CC1,> 22000 nM,

SMILES,half-life at 0.8 µM [1],IC50 [2],further results
CCCC(C)N1CCC(N(Cc2ccccc2)C(=O)Nc2ccc(C(F)(F)F)nc2C)CC1 (stereo not given),> 240 min,13300 nM,
CCCC(C)N1CCC(N(Cc2ccccc2)C(=O)Nc2ccc(C)cc2)CC1 (stereo not given),9.6 min,356 nM,
CCCC(C)N1CCC(N(Cc2ccccc2)C(=O)Nc2ccc(F)c(C(F)(F)F)c2)CC1 (stereo not given),23.6 min,290 nM,
CCCCN1CCC(N(Cc2ccccc2)C(=O)Nc2cccc(C#N)c2)CC1,9.3 min,4250 nM,
CCCC(C)N1CCC(N(Cc2ccccc2)C(=O)Nc2cc(C(F)(F)F)ccc2F)CC1 (stereo not given),48.5 min,7440 nM,
CCCC(C)N1CCC(N(Cc2ccccc2)C(=O)Nc2ccc(C(F)(F)F)cc2)CC1 (stereo not given),27.3 min,314 nM,
CCCC(C)N1CCC(N(Cc2ccccc2)C(=O)Nc2cccc(C(C)C)c2)CC1 (stereo not given),13.4 min,353 nM,
CCCC(C)N1CCC(N(Cc2ccccc2)C(=O)Nc2ccc(I)cc2)CC1 (stereo not given),29.9 min,54 nM,
CCCC(C)N1CCC(N(Cc2ccccc2)C(=O)Nc2ccc3ccccc3c2)CC1 (stereo not given),≤ 6 min,18 nM,CLint scaled at 0.8 µM [8]: ≥ 500 mL/min/kg
CCCCN1CCC(N(Cc2ccccc2)C(=O)Nc2ccc(C)c(Cl)c2)CC1,17.2 min,325 nM,
CCCC(C)N1CCC(N(Cc2ccccc2)C(=O)Nc2ccc(Cl)cc2)CC1 (stereo not given),22.1 min,112 nM,
CCCC(C)N1CCC(N(Cc2ccccc2)C(=O)Nc2ccc(Br)cc2)CC1 (stereo not given),23.2 min,68 nM,
CCCC(C)N1CCC(N(Cc2ccccc2)C(=O)Nc2cccc(F)c2)CC1 (stereo not given),≤ 6 min,1690 nM,
CCCC(C)N1CCC(N(Cc2ccccc2)C(=O)Nc2ccc(C#N)c(C(F)(F)F)c2)CC1 (stereo not given),55.9 min,,
CCCCN1CCC(N(Cc2ccccc2)C(=O)Nc2cccc(C)c2)CC1,10.7 min,1300 nM,
CCCC(C)N1CCC(N(Cc2ccccc2)C(=O)Nc2cccc(Cl)c2)CC1 (stereo not given),≤ 6 min,304 nM,
CCCC(C)N1CCC(N(Cc2ccccc2)C(=O)Nc2cc(Cl)ccc2F)CC1 (stereo not given),14.9 min,> 34000 nM,
CCCCN1CCC(N(Cc2ccccc2)C(=O)Nc2ccc(F)c(C(F)(F)F)c2)CC1,116 min,612 nM,
